For 24 compounds, IC50 results are on record in US20230242520A1, “MALONITRILE DERIVATIVES” (Hoffmann-La Roche Inc., priority 2020, published 2023).

T1 sequence (Q8N884 161-522): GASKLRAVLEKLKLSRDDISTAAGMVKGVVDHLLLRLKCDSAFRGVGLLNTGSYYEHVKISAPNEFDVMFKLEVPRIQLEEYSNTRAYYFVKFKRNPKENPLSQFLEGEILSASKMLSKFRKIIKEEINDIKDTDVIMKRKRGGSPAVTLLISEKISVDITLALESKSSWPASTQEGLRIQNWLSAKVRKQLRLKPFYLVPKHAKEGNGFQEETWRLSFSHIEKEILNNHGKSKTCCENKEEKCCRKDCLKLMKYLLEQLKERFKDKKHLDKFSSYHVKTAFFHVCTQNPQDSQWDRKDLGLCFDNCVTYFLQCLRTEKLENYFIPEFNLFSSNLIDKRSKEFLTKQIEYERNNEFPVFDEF

The test concerns the target T1, human cGAS (residues 161-522) (Homo sapiens, UniProt Q8N884).
T1 construct: Recombinantly expressed purified human cGAS (residues 161-522) was used at 25 nM; made in house
As to the kind of experiment: cGAS Activity Assay - Malachite Green (coupled enzymatic assay, phosphate detection). It is filed as biochemical. The note with it: recombinant human cGAS 25 nM, 80 μM ATP, 80 μM GTP, 100 nM ISD, 4 hour at RT. How it is done: cGAS Activity Assay—Malachite Green
Compounds were tested for cGAS inhibition in a coupled enzymatic assay based on Phosphate detection by Malachite Green. Final assay conditions were 20 mM TRIS pH 7.5 (Applichem), 5 mM MgCl2 (Sigma) and 0.01% BSA (Sigma) supplemented with 80 μM ATP (Sigma), 80 μM GTP (Sigma) and 100 nM Interferon Stimulating DNA (ISD) (Microsynth). Recombinantly expressed purified human cGAS (residues 161-522) was used at 25 nM.
All compounds were prepared as 10 mM stock solutions in DMSO and a 16 pt dilution series in DMSO with a dilution factor of 2.5 was prepared. 1 μL of DMSO dilution series was transferred to 32.3 μL reaction buffer, mixed by pipetting up/down, spun for 1 minute at 3000 rpm and was visually inspected for precipitation. 5 μL of 3-fold enzyme stock solution were transferred to an empty 384-well Black/Clear Flat Bottom Polystyrene NBS (Corning) rows 3-24. Rows 1-2 were filled with assay buffer. Plates were spun 10 seconds at 1000 rpm (164×g). 5 μL of compound intermediate dilution was added and mixed by pipetting up/down to rows 3-24. Rows 1-2 were filled with 3.1% DMSO assay buffer. Plates were spun 10 seconds at 1000 rpm (164×g). 5 μL 3-fold Nucleotide/DNA mix was added to all wells to start the reaction. Plates were spun 10 seconds at 1000 rpm (164×g) and incubated for 4 hour at room temperature (RT) in the dark. 5 μL 4 U/mL PPase (Sigma) were added to all wells. Plates spun 10 seconds at 1000 rpm (164×g). 10 μL BioMol green Solution (Enzo Life Sciences) was added to all wells. Plates spun 10 seconds at 1000 rpm (164×g) and incubated 30 minutes at RT in the dark. Absorbance data was collected 620 nm on an EnVision Multilable Reader (Perkin Elmer) and the following measurement settings were used: excitation filter photometric was 620 nm; excitation from the top; measurement height was 1 mm; number of flashes was 30; number of flashes integrated was 1.
All plates are checked for abnormalities and outliers in the Blank Control (no protein, row 1) and the Neutral Control (no compound, row 2) are excluded using the 3*SD rule. Data was normalized to 0 and 100% by Blank and Neutral Control and each curve was fitted and judged using the 4 parameter logistic equation to determine the IC50 for cGAS inhibition.
Table 2 provides IC50 values (μM ) for cGAS inhibition obtained for particular examples of the present invention as measured by the above-described assay.
A word on the IC50: it is the point on the concentration scale where inhibition reaches its midpoint. Consider `Cn1cncc1/C(O)=C(\C#N)C(=O)Nc1ccc(C(F)(F)F)cc1` [Example 1, (Z)-2-Cyano-3-hydroxy-3-(1-methyl-1H-imidazol-5-yl)-N-(4-(trifluoromethyl)phenyl)acrylamide], for which the IC50 worked out at 1850 nM.

For `Cc1oncc1/C(O)=C(\C#N)C(=O)Nc1cccnc1` [Example 2, (Z)-2-cyano-3-hydroxy-3-(5-methylisoxazol-4-yl)-N-(3-pyridyl)prop-2-], the IC50 came to 1570 nM.

With `Cc1oncc1/C(O)=C(\C#N)C(=O)Nc1ccc2c(c1)CCC2=O` [Example 3, (Z)-2-cyano-3-hydroxy-3-(5-methylisoxazol-4-yl)-N-(1-oxoindan-5-yl)prop-2-enamide], the IC50 is 220 nM.

For `Cn1nncc1/C(O)=C(\C#N)C(=O)Nc1ccc(C(F)(F)F)cc1` [Example 4, (Z)-2-cyano-3-hydroxy-3-(1-methyl-1H-1,2,3-triazol-5-yl)-N-(4-(trifluoromethyl)phenyl) acrylamide], the IC50 was 6310 nM.

In the case of `Cc1oncc1/C(O)=C(\C#N)C(=O)Nc1ccn(C)c(=O)c1` [Example 5, (Z)-2-cyano-3-hydroxy-3-(5-methylisoxazol-4-yl)-N-(1-methyl-2-oxo-4-pyridyl)prop-2-enamide], the IC50 is 170 nM.

For `Cc1oncc1/C(O)=C(\C#N)C(=O)Nc1cc[nH]c(=O)c1` [Example 6, (Z)-2-cyano-3-hydroxy-3-(5-methylisoxazol-4-yl)-N-(2-oxo-1H-pyridin-4-yl)prop-2-enamide], the IC50 came out at 180 nM.

On to `COc1ccc(NC(=O)/C(C#N)=C(\O)c2cnoc2C)nn1` [Example 7, (Z)-2-cyano-3-hydroxy-N-(6-methoxypyridazin-3-yl)-3-(5-methylisoxazol-4-yl)prop-2-enamide], for which the IC50 worked out at 1020 nM.

As to `COc1ccc(NC(=O)/C(C#N)=C(\O)c2cnoc2C)cn1` [Example 8, (Z)-2-cyano-3-hydroxy-N-(6-methoxy-3-pyridyl)-3-(5-methylisoxazol-4-yl)prop-2-enamide], the IC50 came out at 1340 nM.

For the compound `COC(=O)c1sccc1NC(=O)/C(C#N)=C(\O)c1cnoc1C` [Example 9, methyl (Z)-3-(2-cyano-3-hydroxy-3-(5-methylisoxazol-4-yl)acrylamido) thiophene-2-carboxylate], the IC50 was found to be 1270 nM.

For `CCOC(=O)c1c(C)csc1NC(=O)/C(C#N)=C(\O)c1cnoc1C` [Example 10, ethyl (Z)-2-(2-cyano-3-hydroxy-3-(5-methylisoxazol-4-yl)acrylamido)-4-methylthiophene-3-carboxylate], the IC50 was found to be 820 nM.

With `Cc1nocc1/C(O)=C(\C#N)C(=O)Nc1ccc(C(F)(F)F)cc1` [Example 11, (Z)-2-cyano-3-hydroxy-3-(3-methylisoxazol-4-yl)-N-(4-(trifluoromethyl)phenyl) acrylamide], the IC50 came to 3990 nM.

`COC(=O)c1ccc(NC(=O)/C(C#N)=C(\O)c2conc2C)cc1` [Example 12, methyl (Z)-4-(2-cyano-3-hydroxy-3-(3-methylisoxazol-4-yl)acrylamido) benzoate]: the IC50 worked out at 1130 nM.

As to `N#C/C(C(=O)Nc1ccc(C(F)(F)F)cc1)=C(/O)c1cnco1` [Example 13, (Z)-2-cyano-3-hydroxy-3-(oxazol-5-yl)-N-(4-(trifluoromethyl)phenyl) acrylamide], the IC50 came to 7190 nM.

For the compound `Cc1cnoc1/C(O)=C(\C#N)C(=O)Nc1ccc(C(F)(F)F)cc1` [Example 14, (Z)-2-cyano-3-hydroxy-3-(4-methylisoxazol-5-yl)-N-(4-(trifluoromethyl)phenyl) acrylamide], the IC50 was found to be 8480 nM.

As to `Cc1sncc1/C(O)=C(\C#N)C(=O)Nc1ccc(C(F)(F)F)cc1` [Example 15, (Z)-2-cyano-3-hydroxy-3-(5-methylisothiazol-4-yl)-N-(4-(trifluoromethyl)phenyl) acrylamide], the IC50 was found to be 4760 nM.

On to `Cc1oncc1/C(O)=C(\C#N)C(=O)Nc1cccc2ccccc12` [Example 16, (Z)-2-cyano-3-hydroxy-3-(5-methylisoxazol-4-yl)-N-(naphthalen-1-yl)acrylamide], for which the IC50 was 1790 nM.

`Cc1oncc1/C(O)=C(\C#N)C(=O)Nc1ccc2ccccc2c1` [Example 17, (Z)-2-cyano-3-hydroxy-3-(5-methylisoxazol-4-yl)-N-(naphthalen-2-yl)acrylamide]: the IC50 came out at 1110 nM.

For `Cc1oncc1/C(O)=C(\C#N)C(=O)Nc1ccncc1` [Example 18, (Z)-2-cyano-3-hydroxy-3-(5-methylisoxazol-4-yl)-N-(4-pyridyl)prop-2-enamide], the IC50 came out at 620 nM.

Consider `COc1cnc(NC(=O)/C(C#N)=C(\O)c2cnoc2C)cn1` [Example 19, (Z)-2-cyano-3-hydroxy-N-(5-methoxypyrazin-2-yl)-3-(5-methylisoxazol-4-yl)prop-2-enamide], for which the IC50 came out at 840 nM.

As to `Cc1cccc(C)c1NC(=O)c1ccc(NC(=O)/C(C#N)=C(\O)c2cnoc2C)cn1` [Example 20, (Z)-5-(2-cyano-3-hydroxy-3-(5-methylisoxazol-4-yl)acrylamido)-N-(2,6-dimethylphenyl) picolinamide], the IC50 is 500 nM.

With `COc1cccc(-c2cc3cc(NC(=O)/C(C#N)=C(\O)c4cnoc4C)ccc3c(=O)[nH]2)c1` [Example 21, (Z)-2-cyano-3-hydroxy-N-(3-(3-methoxyphenyl)-1-oxo-1,2-dihydroisoquinolin-6-yl)-3-(5-methylisoxazol-4-yl)acrylamide], the IC50 stood at 1060 nM.

Regarding `Cc1oncc1/C(O)=C(\C#N)C(=O)Nc1nc2c(c(-c3ccccc3)n1)CCCC2` [Example 22, (Z)-2-cyano-3-hydroxy-3-(5-methylisoxazol-4-yl)-N-(4-phenyl-5,6,7,8-tetrahydroquinazolin-2-yl)acrylamide], the half-maximal inhibitory concentration (IC50) is 970 nM.

Regarding `COc1nc(NC(=O)/C(C#N)=C(\O)c2cnoc2C)nc2c1CCCC2` [Example 23, (Z)-2-cyano-3-hydroxy-N-(4-methoxy-5,6,7,8-tetrahydroquinazolin-2-yl)-3-(5-methylisoxazol-4-yl)acrylamide], the half-inhibitory concentration (IC50) amounted to 5210 nM.

Consider `Cc1nc(NC(=O)/C(C#N)=C(\O)c2cnoc2C)nc2c1CS(=O)(=O)CC2` [Example 24, (Z)-2-cyano-3-hydroxy-N-(4-methyl-6,6-dioxido-7,8-dihydro-5H-thiopyrano[4,3-d]pyrimidin-2-yl)-3-(5-methylisoxazol-4-yl)acrylamide], for which the IC50 is 450 nM.
